Results reported in the supplement of paper PMC10307832.

Columns and labels:
Assay in all cases: relative viability (nuclei count vs DMSO), 5 days (fraction); higher = more cells survive
A549 = system: A549
How it was run: (§1)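 Five library-drug doses in √10 steps were combined with a fixed anchor-drug dose, or a single drug was given alone, by pin tool to lung cancer cell lines in 1536-well plates the day after seeding. Nuclei were stained and counted after 5 days. Relative viability is the nuclei count in treated wells over that in vehicle wells, taken as the median of duplicate plates.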

Calu-6 = system: Calu-6
How it was run: as §1

EBC-1 = system: EBC-1
How it was run: as §1

HCC-78 = system: HCC-78
How it was run: as §1

IA-LM = system: IA-LM
How it was run: as §1

NCI-H1299 = system: NCI-H1299
How it was run: as §1

NCI-H1703 = system: NCI-H1703
How it was run: as §1

NCI-H2009 = system: NCI-H2009
How it was run: as §1

NCI-H460 = system: NCI-H460
How it was run: as §1

## O=c1cc(N2CCOCC2)oc2c(-c3cccc4c3sc3ccccc34)cccc12 + CC1(C)CCC(c2ccc(Cl)cc2)=C(CN2CCN(c3ccc(C(=O)NS(=O)(=O)c4ccc(N[C@H](CCN5CCOCC5)CSc5ccccc5)c(S(=O)(=O)C(F)(F)F)c4)cc3)CC2)C1 [Navitoclax] (partner 0.5 µM)
A549; first compound 0.01 µM
  relative viability: 1.22
A549; first compound 0.03162 µM
  relative viability: 1.17
A549; first compound 0.1 µM
  relative viability: 1.28
A549; first compound 0.3162 µM
  relative viability: 1.23
A549; first compound 1 µM
  relative viability: 1.2
Calu-6; first compound 0.01 µM
  relative viability: 0.795
Calu-6; first compound 0.03162 µM
  relative viability: 0.786
Calu-6; first compound 0.1 µM
  relative viability: 0.967
Calu-6; first compound 0.3162 µM
  relative viability: 0.86
Calu-6; first compound 1 µM
  relative viability: 0.933
EBC-1; first compound 0.01 µM
  relative viability: 0.469
EBC-1; first compound 0.03162 µM
  relative viability: 0.377
EBC-1; first compound 0.1 µM
  relative viability: 0.353
EBC-1; first compound 0.3162 µM
  relative viability: 0.408
EBC-1; first compound 1 µM
  relative viability: 0.406
HCC-78; first compound 0.01 µM
  relative viability: 0.742
HCC-78; first compound 0.03162 µM
  relative viability: 0.831
HCC-78; first compound 0.1 µM
  relative viability: 0.756
HCC-78; first compound 0.3162 µM
  relative viability: 0.755
HCC-78; first compound 1 µM
  relative viability: 0.843
IA-LM; first compound 0.01 µM
  relative viability: 0.909
IA-LM; first compound 0.03162 µM
  relative viability: 0.667
IA-LM; first compound 0.1 µM
  relative viability: 0.902
IA-LM; first compound 0.3162 µM
  relative viability: 0.561
IA-LM; first compound 1 µM
  relative viability: 0.876
NCI-H1299; first compound 0.01 µM
  relative viability: 1.02
NCI-H1299; first compound 0.03162 µM
  relative viability: 1.06
NCI-H1299; first compound 0.1 µM
  relative viability: 1.08
NCI-H1299; first compound 0.3162 µM
  relative viability: 1
NCI-H1299; first compound 1 µM
  relative viability: 1.04
NCI-H1703; first compound 0.01 µM
  relative viability: 1.34
NCI-H1703; first compound 0.03162 µM
  relative viability: 1.28
NCI-H1703; first compound 0.1 µM
  relative viability: 1.24
NCI-H1703; first compound 0.3162 µM
  relative viability: 1.07
NCI-H1703; first compound 1 µM
  relative viability: 1.01
NCI-H2009; first compound 0.01 µM
  relative viability: 1.14
NCI-H2009; first compound 0.03162 µM
  relative viability: 1.16
NCI-H2009; first compound 0.1 µM
  relative viability: 1.14
NCI-H2009; first compound 0.3162 µM
  relative viability: 1.19
NCI-H2009; first compound 1 µM
  relative viability: 1.05
NCI-H460; first compound 0.01 µM
  relative viability: 1.06
NCI-H460; first compound 0.03162 µM
  relative viability: 1.07
NCI-H460; first compound 0.1 µM
  relative viability: 1.28
NCI-H460; first compound 0.3162 µM
  relative viability: 1.04
NCI-H460; first compound 1 µM
  relative viability: 1.12
